Laboratory results published in patent publication US9833497B2, “Human originated EGF domain proteins and use of the same” (CHENGDU SOURCEBIO LIMITED-LIABILITY COMPANY, priority 2013, dated 2017).

Experiments:
Format in all cases: cell-based
[1] = tested on: E. coli DH5α; experiment: Antibacterial activity: MIC and growth curve against E. coli DH5α in 96-well plate; settings: minimal inhibitory concentration against E. coli DH5α; 96-well plate, 5×10^5 CFU/mL, 37° C., judged after 8 h
Outline: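 MIC taken as lowest protein level with no bacterial growth, tracked by A600 every 30 min during 37 °C, 175 rpm culture. Two-fold protein series 50-12.5 μg/mL final, triplicate wells, against 5×10^5 CFU/mL of LB-washed mid-log cells.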

[2] = tested on: E. coli BL21; experiment: MIC against Gram-negative bacteria: E. coli BL21; settings: for MIC / MIC (μg/mL) E. coli BL21: E. coli BL21; for MIC (μg/mL) E. coli BL21: 96-well plate, 37° C., 10 h
Outline: (§1)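 First, colonies from LB agar were grown in LB at 37° C, 185 rpm, to McFarland turbidity 0.5, then centrifuged and resuspended in fresh LB. Next, wells received 5×10^5 CFU/mL bacteria plus two-fold serially diluted EGF domain protein (triplicate). Finally, plates were shaken at 37° C and the no-growth concentration taken as MIC.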

[3] = tested on: Pseudomonas aeruginosa; experiment: MIC against Gram-negative bacteria: Pseudomonas aeruginosa; settings: for MIC: P. aeruginosa; for MIC (μg/mL) P. aeruginosa: Pseudomonas aeruginosa, 96-well plate, 37° C., 10 h
Outline: as §1

[4] = tested on: Klebsiella pneumonia; experiment: MIC against Gram-negative bacteria: Klebsiella pneumonia; settings: for MIC: K. pneumonia; for MIC (μg/mL) K. pneumonia: Klebsiella pneumonia, 96-well plate, 37° C., 10 h
Outline: as §1

[5] = tested on: Enterobacter cloacae; experiment: MIC against Gram-negative bacteria: Enterobacter cloacae; settings: for MIC: E. cloacae; for MIC (μg/mL) E. cloacae: Enterobacter cloacae, 96-well plate, 37° C., 10 h
Outline: as §1

[6] = tested on: Aeromonas hydrophila; experiment: MIC against Gram-negative bacteria: Aeromonas hydrophila; settings: for MIC: A. hydrophila; for MIC (μg/mL) A. hydrophila: Aeromonas hydrophila, 96-well plate, 37° C., 10 h
Outline: as §1

[7] = tested on: Citrobacter diversus; experiment: MIC against Gram-negative bacteria: Citrobacter diversus; settings: for MIC: C. diversus; for MIC (μg/mL) C. diversus: Citrobacter diversus, 96-well plate, 37° C., 10 h
Outline: as §1

[8] = tested on: Moraxella catarrhalis; experiment: MIC against Gram-negative bacteria: Moraxella catarrhalis; settings: for MIC: M. catarrhalis; for MIC (μg/mL) M. catarrhalis: Moraxella catarrhalis, 96-well plate, 37° C., 10 h
Outline: as §1

[9] = tested on: Proteus mirabilis; experiment: MIC against Gram-negative bacteria: Proteus mirabilis; settings: for MIC: P. mirabilis; for MIC (μg/mL) P. mirabilis: Proteus mirabilis, 96-well plate, 37° C., 10 h
Outline: as §1

[10] = tested on: Proteus vulgaris; experiment: MIC against Gram-negative bacteria: Proteus vulgaris; settings: for MIC: P. vulgaris; for MIC (μg/mL) P. vulgaris: Proteus vulgaris, 96-well plate, 37° C., 10 h
Outline: as §1

[11] = tested on: Serratia marcescens; experiment: MIC against Gram-negative bacteria: Serratia marcescens; settings: for MIC: S. marcescens; for MIC (μg/mL) S. marcescens: Serratia marcescens, 96-well plate, 37° C., 10 h
Outline: as §1

[12] = 10 h cultivation at 37° C., 5×10^5 CFU/mL
[13] = 10 h cultivation at 37° C., 5×10^5 CFU/mL, two-fold serial dilution

| Substance | MIC [1] [µg/mL] | MIC (μg/mL) E. coli BL21 ([2]; 5×10^5 CFU/mL) [µg/mL] | MIC (μg/mL) P. aeruginosa ([3]; 5×10^5 CFU/mL) [µg/mL] | MIC (μg/mL) K. pneumonia ([4]; 5×10^5 CFU/mL) [µg/mL] | MIC (μg/mL) E. cloacae ([5]; 5×10^5 CFU/mL) [µg/mL] | MIC (μg/mL) A. hydrophila ([6]; 5×10^5 CFU/mL) [µg/mL] | MIC (μg/mL) C. diversus ([7]; 5×10^5 CFU/mL) [µg/mL] | MIC (μg/mL) M. catarrhalis ([8]; 5×10^5 CFU/mL) [µg/mL] | MIC (μg/mL) P. mirabilis ([9]; 5×10^5 CFU/mL) [µg/mL] | MIC (μg/mL) P. vulgaris ([10]; 5×10^5 CFU/mL) [µg/mL] | MIC (μg/mL) S. marcescens ([11]; 5×10^5 CFU/mL) [µg/mL] | also measured |
| --- | --- | --- | --- | --- | --- | --- | --- | --- | --- | --- | --- | --- |
| PRT909 (LVDECSPSPCQNGATCTDYLGGYSCKCVAGYHGVNCS; listed as Homo sapiens) | 50 | – | – | – | – | – | – | – | – | – | – | MIC ([2]; 10 h cultivation at 37° C.): 25 µg/mL; MIC ([3]; 10 h cultivation at 37° C.): 12.5 µg/mL; MIC ([4]; 10 h cultivation at 37° C.): 50 µg/mL; MIC ([5]; 10 h cultivation at 37° C.): 25 µg/mL; MIC ([6]; 10 h cultivation at 37° C.): 12.5 µg/mL; MIC ([7]; 10 h cultivation at 37° C.): 50 µg/mL; MIC ([8]; 10 h cultivation at 37° C.): 25 µg/mL; MIC ([9]; 10 h cultivation at 37° C.): 12.5 µg/mL; MIC ([10]; 10 h cultivation at 37° C.): 50 µg/mL; MIC ([11]; 10 h cultivation at 37° C.): 12.5 µg/mL |
| PRT115 (SRNPCSSSPCRGGATCVLGPHGKNYTCRCPQGYQLDSSQLDCV; listed as Homo sapiens) | 12.5 | 50 | 12.5 | 50 | 25 | 12.5 | 25 | 50 | 12.5 | 12.5 | 12.5 | – |
| PRT24 (ELDLCYSNPCRNGGACARREGGYTCVCRPRFTGEDCE; listed as Homo sapiens) | 12.5 | 25 | 12.5 | 25 | 12.5 | 12.5 | 25 | 12.5 | 25 | 12.5 | 25 | – |
| PRT429 (DVNECEAQRCSQECANIYGSYQCYCRQGYQLAEDGHTCT; listed as Homo sapiens) | 12.5 | – | – | – | – | – | – | – | – | – | – | MIC [2, 12]: 12.5 µg/mL; MIC [3, 12]: 50 µg/mL; MIC [4, 12]: 12.5 µg/mL; MIC [5, 12]: 50 µg/mL; MIC [6, 12]: 12.5 µg/mL; MIC [7, 12]: 50 µg/mL; MIC [8, 12]: 12.5 µg/mL; MIC [9, 12]: 25 µg/mL; MIC [10, 12]: 50 µg/mL; MIC [11, 12]: 25 µg/mL |
| PRT1149 (APSVCQQDVCHNGGTCHAIFLSSGIVSFQCDCPLHFTGRFCE; listed as Homo sapiens) | 25 | – | – | – | – | – | – | – | – | – | – | MIC E. coli BL21 [2, 13]: 25 µg/mL; MIC P. aeruginosa [3, 13]: 50 µg/mL; MIC K. pneumonia [4, 13]: 25 µg/mL; MIC E. cloacae [5, 13]: 12.5 µg/mL; MIC A. hydrophila [6, 13]: 50 µg/mL; MIC C. diversus [7, 13]: 12.5 µg/mL; MIC M. catarrhalis [8, 13]: 50 µg/mL; MIC P. mirabilis [9, 13]: 12.5 µg/mL; MIC P. vulgaris [10, 13]: 25 µg/mL; MIC S. marcescens [11, 13]: 50 µg/mL |
| PRT45 (SINSCPNNCSGHGKCTTSVSVPSQVYCECDKYWKGEACD; listed as Homo sapiens) | 50 | 25 | 12.5 | 25 | 50 | 25 | 12.5 | 25 | 50 | 12.5 | 50 | – |
